Active and inactive are the calls of the source. The rule behind the calls is not given here.

The term AC50 denotes the midpoint of the concentration-response curve, whichever way the signal moves.

For one experiment, the system named is B cell line, CD40 signaling inhibition reporter. The experiment is described as follows: inhibitors of CD40 signaling, dose response, B cell lineage (AID 1259332).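 For activity change, negative = inhibition: 0% = neutral control wells and -100% = positive control wells.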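 Note: cells stimulated with CD40 ligand tCD40L.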
Conditions: not given
As to `COc1ccc(S(=O)(=O)Nc2ccc3c(c2)C(=O)N([C@H](C)CO)C[C@@H](C)[C@@H](CN(C)Cc2ccc(C(F)(F)F)cc2)OCCCC[C@@H](C)O3)cc1`, the AC50 was 8.69 µM.

Consider `CCCNC(=O)N1[C@@H](C#N)[C@H](c2ccc(-c3cccc(OC)c3)cc2)[C@@H]1CO`, for which the AC50 is 11 µM.

On to `C=C1C(=O)OC2CC1C(O)CC(C)=CCCC(C)=CC(O)CC2C` (stereo not given), for which the AC50 was 6 µM.

Regarding `CC(NCC(O)COCCC12CC3CC(CC(C3)C1)C2)c1ccccc1` (stereo not given), the AC50 was 4.88 µM.

For `N#Cc1cccc(-c2ccc(C3[C@@H]4CN(C(=O)Nc5ccc(C(F)(F)F)cc5)C[C@H]3N4)cc2)c1` (stereo not given in full), the AC50 was 8.9 µM.

In the case of `C=C1C(=O)O[C@H]2[C@H]1CC/C(C)=C/CC[C@@]1(C)O[C@@H]21`, the AC50 is 4.54 µM.

For `Cc1noc(C)c1S(=O)(=O)Nc1ccc2c(c1)C(=O)N([C@@H](C)CO)C[C@@H](C)[C@@H](CN(C)C(=O)Nc1cccc3ccccc13)OCCCC[C@H](C)O2`, the AC50 is 1.52 µM.

As for `c1ccc(-c2nnc(-c3ccccn3)nn2)nc1`, the AC50 is 10.5 µM.

As to `O=C(/C=C/c1ccccc1)CC(O)(c1ccccc1)C(F)(F)C(F)F` (stereo not given), the AC50 is 6.39 µM.

For `O=C1c2ccccc2C(=O)C1c1ccc2ccccc2n1`, the AC50 was 6.15 µM.

With `O=C(NC(=S)/C(=C1\CCCCCN1)[N+](=O)[O-])c1ccccc1`, the AC50 was 3.07 µM.

With `c1ccn2cc(-c3ccc4c(c3)OCCO4)nc2c1`, the AC50 is 10.2 µM.

As to `CC1(C)C(=O)C=C[C@@]2(C)C1C(=O)C(=O)[C@]1(C)C2CC[C@@]2(C)[C@H](c3ccoc3)C[C@H]3O[C@]321` (stereo not given in full), the AC50 was 3.47 µM.

Turning to `COC(=O)C1=C(C(=O)OC)C(C(=O)OC)C(C(=O)OC)C(C(=O)OC)(C(=O)OC)C(C(=O)OC)=C1C(=O)OC` (stereo not given), the AC50 is 3.44 µM.

System in the next experiment: not listed separately
The description is as above. Conditions: B cell line, CD40 signaling inhibition reporter; at 0.35 µM (top of the series).
On to `CCc1cnc(N2[C@H](C#N)[C@H](c3ccc(C#CCC4CCCC4)cc3)[C@@H]2CO)s1`, for which the activity change, negative = inhibition was 4.84% (inactive).

Still in this experiment, the particulars now being: B cell line, CD40 signaling inhibition reporter; at 0.38 µM (top of the series).
As to `c1ccc(CCSc2nccn2-c2ccccc2)cc1`, the activity change, negative = inhibition was 36.4% (inactive).

Still in this experiment, the particulars now being: B cell line, CD40 signaling inhibition reporter; at 1.1 µM (top of the series).
For `C/C=C/c1ccc(C2[C@H]3CNC[C@@H]2N3Cc2cccc(OC)c2)cc1` (stereo not given in full), the activity change, negative = inhibition is 19.7% (inactive).

For `O=C1C(=NO)CCc2ccccc21`, the activity change, negative = inhibition was 21.3% (inactive).

Consider `O=C(Nc1nc2ccccc2s1)c1ccc(OCC2CCCO2)cc1` (stereo not given), for which the activity change, negative = inhibition is 111% (inactive).

For the compound `COc1ccc(S(=O)(=O)N(C)C[C@H]2Oc3ccc(NC(=O)Nc4ccc(C(F)(F)F)cc4)cc3C(=O)N([C@@H](C)CO)C[C@@H]2C)cc1`, the activity change, negative = inhibition is 11.5% (inactive).

For the compound `CCc1cnc(N2[C@H](C#N)[C@@H](c3ccccc3C3=CCCC3)[C@@H]2CO)s1`, the activity change, negative = inhibition is 18.2% (inactive).

The same experiment, now with this note: B cell line, CD40 signaling inhibition reporter; at 3.5 µM (top of the series).
`CCCNC(=O)N1[C@H](CO)[C@H](c2ccc(/C=C/c3ccccc3)cc2)[C@@H]1C#N`: the activity change, negative = inhibition is 5% (inactive).

For `COc1ccccc1C(=O)Nc1ccc2c(c1)C(=O)N(C)[C@H]1CC[C@H](CC(=O)Nc3cccc(C(C)C)c3)O[C@@H]1CO2`, the activity change, negative = inhibition is 12.5% (inactive).

On to `N#Cc1cccc(-c2ccc([C@@H]3[C@H](CO)N4CCCCN(C(=O)Nc5cccc(F)c5)C[C@@H]34)cc2)c1`, for which the activity change, negative = inhibition was 18.1% (inactive).

For `Oc1cc2c(cc1C(c1ccc(Br)cc1)N1CCCC1)OCO2` (stereo not given), the activity change, negative = inhibition is 16.1% (inactive).

Consider `CC(C)NC(=O)N1CC(=O)N2[C@H](CO)[C@@H](c3ccc(/C=C/c4ccccc4)cc3)[C@H]2C1`, for which the activity change, negative = inhibition was 6.58% (inactive).

On to `c1cncc(C2=NCCC2)c1`, for which the activity change, negative = inhibition is -2.83% (inactive).

On to `O=C1C=CC(=O)C2=C1C1c3ccccc3C2c2ccccc21`, for which the activity change, negative = inhibition was -3.76% (inactive).

On to `N#C[C@@H]1[C@@H](c2ccccc2-c2ccccc2)[C@@H](CO)N1C(=O)NC1CCCC1`, for which the activity change, negative = inhibition is 5.58% (inactive).

Turning to `CCc1cnc(N2[C@H](C#N)[C@@H](c3ccc(C#CC(C)C)cc3)[C@H]2CO)s1`, the activity change, negative = inhibition is 8.53% (inactive).

As to `N#C[C@H]1[C@H](c2ccc(C#CC3CCCCC3)cc2)[C@H](CO)N1C(=O)Nc1ccc(F)cc1`, the activity change, negative = inhibition was -7.18% (inactive).

`Cc1ccc(-c2cc(C(=O)N3CC(C)OC(C)C3)c3ccccc3n2)o1` (stereo not given): the activity change, negative = inhibition was 26% (inactive).

As to `C[C@@H]1CN([C@H](C)CO)C(=O)Cc2cc(NC(=O)Cc3cn(C)c4ccccc34)ccc2O[C@H]1CN(C)Cc1ccc(C(F)(F)F)cc1`, the activity change, negative = inhibition is 0.703% (inactive).

With `C[C@H](CO)N1C[C@H](C)[C@H](CN(C)CC2CCCCC2)Oc2ccc(NC(=O)Nc3ccc(C(F)(F)F)cc3)cc2C1=O`, the activity change, negative = inhibition was 4.59% (inactive).

With `C[C@@H]1CCCCO[C@@H](CN(C)CC2CCCCC2)[C@@H](C)CN([C@@H](C)CO)C(=O)c2cc(NC(=O)Nc3ccc(C(F)(F)F)cc3)ccc2O1`, the activity change, negative = inhibition is -6.41% (inactive).

Consider `COc1ccc(CN2CC3(CN(C(=O)Cc4ccccc4)C3)c3c([nH]c4cc(OC)ccc34)[C@H]2CO)cc1`, for which the activity change, negative = inhibition was -3.26% (inactive).

Consider `CCCNC(=O)c1cc2c(c(-c3cccc(-c4cc5ccccc5o4)c3)n1)[C@H](CCO)N(C(=O)NC(C)C)C2`, for which the activity change, negative = inhibition was 4.19% (inactive).

Staying with this experiment, now noted: B cell line, CD40 signaling inhibition reporter; at 10 µM (top of the series).
As to `O=C(c1ccc(-c2ccc([N+](=O)[O-])cc2)o1)N1CCCC(C(F)(F)F)C1` (stereo not given), the activity change, negative = inhibition is 7.32% (inactive).

`Cc1cc(C(=O)COC(=O)c2cccn2C)c(C)n1Cc1ccco1`: the activity change, negative = inhibition was -4.27% (inactive).

Turning to `CCc1cc2c(=O)c(-c3ccc4c(c3)OCCO4)coc2c(CN2CCCCC2C)c1O` (stereo not given), the activity change, negative = inhibition was 1.98% (inactive).

In the case of `CC12CN3CC(C)(CN(C1)C3c1ccc3c(c1)OCO3)C2=O` (stereo not given), the activity change, negative = inhibition is 6.2% (inactive).

As to `Fc1ccccc1/C=C1\CCCC2=C1Nc1nnnn1C2c1ccccc1F` (stereo not given), the activity change, negative = inhibition is -1.53% (inactive).

`COc1ccc(C(=O)/C=C/C(=O)N(CC(=O)NC2CCCCC2)Cc2ccc(F)cc2)c(O)c1`: the activity change, negative = inhibition is -5.51% (inactive).

In the case of `C[C@@H]1CN([C@@H](C)CO)S(=O)(=O)c2ccc(C#Cc3ccccc3F)cc2O[C@H]1CN(C)C(=O)Cc1cccnc1`, the activity change, negative = inhibition is -17.7% (inactive).

Consider `CC(=O)Nc1ccc(S(=O)(=O)c2ccc(N)cc2)cc1`, for which the activity change, negative = inhibition is 0.776% (inactive).

For the compound `COc1ccc(CN2CC3(CN(S(=O)(=O)c4ccc(C)cc4)C3)c3c([nH]c4cc(OC)ccc34)[C@H]2CO)cc1`, the activity change, negative = inhibition was -1.27% (inactive).

On to `CCCCC1C(=O)NC(=S)N(C)C1=O` (stereo not given), for which the activity change, negative = inhibition was 11.5% (inactive).

In the case of `COCCn1c(C)cc(C(=O)COC(=O)c2ccc(Br)o2)c1C`, the activity change, negative = inhibition was -11.7% (inactive).

In the case of `Cc1ccc2nc(-c3cc(-c4ccccc4)no3)cn2c1`, the activity change, negative = inhibition is 34.4% (inactive).

Consider `C=C1C(=O)OC2C=C(CO)CCC=C(CO)CC(OC(=O)C(C)C)C12` (stereo not given), for which the activity change, negative = inhibition was 14% (inactive).

In the case of `Cc1ccc(C2(C)NC(=O)N(CC(=O)Nc3cccnc3Cl)C2=O)cc1` (stereo not given), the activity change, negative = inhibition is -2.81% (inactive).

For the compound `Oc1cc(O)cc(/C=C/c2ccc(O)c(O)c2)c1`, the activity change, negative = inhibition is -10.7% (inactive).

In the case of `CCCCn1c(NC(=O)c2ccc(Br)o2)c(S(=O)(=O)c2ccccc2)c2nc3ccccc3nc21`, the activity change, negative = inhibition was 6.39% (inactive).

For `CC(C)OC(=O)CC1C(=O)NCCN1C(=S)NC(=O)c1cccs1` (stereo not given), the activity change, negative = inhibition is 15.3% (inactive).

Regarding `NS(=O)(=O)c1cc2c(cc1C(F)(F)F)NC(Cc1ccccc1)NS2(=O)=O` (stereo not given), the activity change, negative = inhibition is 5.72% (inactive).

Consider `Nc1cccc2nc3ccccc3cc12`, for which the activity change, negative = inhibition is 22.5% (inactive).

Regarding `COC(=O)c1ccc2c(=O)[nH]c(COC(=O)c3c(-c4ccccc4)noc3C)nc2c1`, the activity change, negative = inhibition is 7.81% (inactive).

`Cc1c(C(=O)c2cccc3ccccc23)c2cccc3c2n1[C@H](CN1CCOCC1)CO3`: the activity change, negative = inhibition is -18.3% (inactive).

For the compound `CCCC(C)Sc1nc2c([nH]1)c(=S)n(C)c(=O)n2C` (stereo not given), the activity change, negative = inhibition was -8.82% (inactive).

In the case of `CCCCc1nc2ccccc2[nH]1`, the activity change, negative = inhibition is 2.81% (inactive).

With `CC(=O)c1cc(-c2ccccc2)n(CC(=O)NCc2cccs2)c1C`, the activity change, negative = inhibition is -1.07% (inactive).

Turning to `CC(=O)Nc1nc2nc(-c3ccccc3)cc(-c3ccccc3)n2n1`, the activity change, negative = inhibition was 6.86% (inactive).

For the compound `C[C@@H]1CN([C@@H](C)CO)C(=O)c2c(c3ccccc3n2C)-c2ccccc2CO[C@@H]1CN(C)Cc1ccccc1C(F)(F)F`, the activity change, negative = inhibition is 4.94% (inactive).

With `Cc1ccc(C(CC(=O)NCc2ccco2)c2ccc(OC(C)C)cc2)cc1` (stereo not given), the activity change, negative = inhibition was 3.92% (inactive).

In the case of `C[C@@H]1CN([C@@H](C)CO)C(=O)c2c(c3ccccc3n2C)-c2ccccc2CO[C@H]1CN(C)S(=O)(=O)c1ccc([N+](=O)[O-])cc1`, the activity change, negative = inhibition is -6.57% (inactive).

Consider `Cc1ccc(-c2nn3c(C)nnc3c3ccccc23)cc1S(=O)(=O)NCc1ccccc1`, for which the activity change, negative = inhibition is 3.44% (inactive).

For the compound `O=C1Cc2c([nH]c3ccc(Br)cc23)-c2ccccc2N1`, the activity change, negative = inhibition was 17.8% (inactive).

Consider `NS(=O)(=O)c1nn2cc(-c3ccccc3)nc2s1`, for which the activity change, negative = inhibition was -27.6% (inactive).

Consider `COc1ccc(S(=O)(=O)Nc2ccc3c(c2)C(=O)N([C@@H](C)CO)C[C@@H](C)[C@H](CN(C)Cc2ccc(C(F)(F)F)cc2)OCCCC[C@@H](C)O3)cc1`, for which the activity change, negative = inhibition is -0.502% (inactive).

`O=C(Nc1ccccc1F)N1CCCCN2[C@H](CO)[C@H](c3ccc(/C=C/c4ccccc4)cc3)[C@H]2C1`: the activity change, negative = inhibition was -13.9% (inactive).

For the origin of these results see PubChem BioAssay AID1259332 (Broad Institute, 2017).
